Assay results published in US20260224590A1 (priority 2023, published 2026).
Like-named read-outs stand apart in the source and are kept apart here.

Key:
[1] = molecular target: T1, 5-HT2A receptor (Homo sapiens, UniProt P28223); assay: 5-HT2A receptor downstream β-arrestin2 recruitment in HEK-293T cells; format: cell-based; set-up: expressed in transfected cells; host or cells: HEK-293T (ATCC, CRL-11268); conditions: for β-arrestin2 signaling agonistic activity (% in parentheses): HEK-293T, percentage printed in parentheses beside the nM value, not defined; for signaling pathway selectivity at the 5-HT2A receptor (β-arrestin2 versus G protein): statement on Table 2
Experimental: (§1) On the second day, the confluent cells from a 6 cm culture dish were digested and reseeded into a 96-well plate at a volume of 100 μL of culture medium per well. On the third day, the drugs were added for testing. The 96-well plate was taken out from the cell incubator to decant the culture medium. 40 μL of the substrate coelenterazine 400a (final concentration 5 μM) was added to each well, and then 20 μL of different drugs were added sequentially from left to right, ensuring that the final concentration of the drug decreased gradually from bottom to top, with two replicates per treatment. Finally, the prepared samples were loaded on a plate reader for signal quantification. The readout values reflected the recruitment of β-arrestin2 to the membrane or the dissociation of G protein trimer. The former indicated the degree of activation of the downstream β-arrestin2 signaling pathway mediated by the 5-HT2A receptor, and the latter indicated the degree of activation of the downstream G protein signaling pathway mediated by the 5-HT2A receptor.

[2] = molecular target: T1, 5-HT2A receptor; assay: 5-HT2A receptor downstream G protein (Gq) signaling, G protein trimer dissociation in HEK-293T cells; format: cell-based; set-up: expressed in transfected cells; host or cells: HEK-293T (ATCC, CRL-11268); conditions: percentage printed in parentheses beside the nM value, not defined
Experimental: as §1

[3] = molecular target: T1, 5-HT2A receptor; assay: radioligand competitive binding assay, affinity for the 5-HT2A receptor; conditions: [3H]-LSD competition, 293T membranes transiently expressing 5-HT2A receptor
[4] = test system: C57BL/6J wild-type mice, acute restraint stress; assay: tail suspension test (TST) after acute restraint stress; format: in vivo; conditions: 5 h acute restraint stress, intraperitoneal injection, test after 30 minutes
Experimental: (§2) Method: Acute restraint stress (ARS) is frequently used to induce a depressive state in mice. The forced swim test (FST) and tail suspension test (TST) are currently the most commonly used models for inferring “depression-like” behaviors. C57BL/6J wild-type mice (over 8 weeks old, purchased from Shanghai Lingchang Biotech Co., Ltd.) were restrained individually in a rodent restraint device for 5 hours. The mice were restricted from all body movements, but only minimal pain was introduced. During the ARS experiment, the mice were deprived of both food and water. After 5 hours of restraint, a separate group of mice was released and immediately injected intraperitoneally with the test compound. After 30 minutes of recovery, the behavioral changes of the mice were assessed through the Forced Swim Test (FST) or Tail Suspension Test (TST). […] All mice were forced to swim for 6 minutes, and their behavior was recorded using a video camera. The immobility time during the last 4 minutes of the test was recorded. […] In the TST, mice in the control group and those subjected to restraint stress were suspended by their tails with tape for 6 minutes, and their behavior was recorded using a video camera. The immobility time during the last 4 minutes was manually timed and assessed by an observer who was unaware of the treatment conditions.

[5] = 10 mg/kg IP, male C57 mice
Experimental: The concentration of the compound in mouse plasma was determined using LC-MS/MS, and the relevant pharmacokinetic parameters were calculated to investigate the pharmacokinetic characteristics of the compound in mice.
Experimental design: 60 male C57 mice (purchased from Suzhou JOINN Laboratory Animal Co., Ltd.) were randomly divided into groups based on weight, with 3 mice per group. The mice were fasted with water ad libitum for 12 to 14 hours one day before test-article administration and fed 4 hours after the administration. The route of administration was intraperitoneal (IP), with a dosing concentration of 1 mg/mL, and a solvent formulation of 10% DMSO+90% saline.
Sample collection: 0.1 mL of blood was collected from the orbit under isoflurane anesthesia before and after test-article administration, transferred to EDTA K2 tubes, and placed on an ice bath. The samples were centrifuged at 5000 rpm for 10 minutes at 4° C., and the plasma was collected. […] Prior to analysis, all plasma samples were stored at −80° C.
Data processing: Drug concentrations in plasma and brain tissues were measured using LC-MS (API4000QTRAP triple quadrupole tandem mass spectrometer, equipped with an electrospray ionization source (ESI)). The data collection and control system software utilized was Analyst 1.5.1 (Applied Biosystems). The sample peak integration in the spectrum was conducted automatically; the ratio of the sample peak area to the internal standard peak area was used as an indicator to perform regression with the concentration of the sample. Regression method: Linear regression with a weighting factor of 1/X^2. Pharmacokinetic parameters were analyzed using a non-compartmental model in WinNonlin Professional v6.3 (Pharsight, USA). Cmax is the measured maximum plasma concentration, the area under the plasma concentration-time curve (AUC(0→t)) was calculated by the trapezoidal method, and Tmax is the time to reach peak plasma concentration after administration. Experimental data are presented as “Mean±Standard Deviation” (Mean±SD, n≥3) or “Mean” (n=2).

[6] = molecular target: T2, dopamine D2 receptor (Homo sapiens, UniProt P14416); assay: radioligand competitive binding assay, affinity for the dopamine D2 receptor
T2 construct: expressed in transfected cells; host or cells: HEK-293T (ATCC, CRL-11268)
Experimental: Method: The affinity of the compounds of the present disclosure for the dopamine D2 receptor was determined using a radioligand competitive binding assay as follows. In the first step, a cell membrane component containing dopamine D2 receptor was prepared. […] 48 hours post-transfection, the 10 cm culture dish was taken out from the cell incubator and the cultured cells had expressed the dopamine D2 receptor. The culture medium was aspirated using a vacuum pump, and 3 mL of lysis buffer was added to each culture dish. The cells were then placed in a cold room at 4° C. for 10 minutes. After the cells were detached, they were transferred to a 15 mL centrifuge tube and centrifuged at 1500 rpm for 5 minutes at 4° C., and the supernatant was discarded. The cell pellet was transferred to a tissue homogenizer, and 3 mL of lysis buffer was added. Sufficient grinding was applied to break the cells. The cell suspension was then equally aliquoted into several Eppendorf tubes and centrifuged at 12000 rpm for 5 minutes at 4° C., and the supernatant was discarded. The resulting precipitate was the cell membrane component containing the dopamine D2 receptor. […] The machine readout value reflected the amount of [3H]-Methylspiperone bound on the membrane, and after further data processing, the affinity Ki values of different compounds for the dopamine D2 receptor were obtained.

[7] = test system: C57BL/6J mice; assay: head-twitch response in mice (hallucinogenic effects); format: in vivo; conditions: intraperitoneal injection, first 30 minutes, all doses tested
From the text: Method: The head-twitch response in mice was detected via oscillatory signals to characterize hallucinogenic effects. Mice (strain C57BL/6J, purchased from Shanghai Lingchang Biotech Co., Ltd.) were anesthetized with 2% isoflurane. A small portion of the scalp was removed from the center of the dorsal cranium. A custom-made small neodymium magnet (4 mm×4 mm×2 mm) was attached to the center of the dorsal cranium using dental resin. The magnet N-S poles were kept parallel to the dorsoventral aspect of the implant. The mice were allowed to recover for 1 week before testing. To record precise head movements, the mice were placed in a glass beaker with a diameter of 12 cm, surrounded by 150 turns of #30 enameled copper wire. The output signal from the coil was recorded using a PowerLab/4SP instrument installed with LabChart V8.1.16 software. Coil voltage was amplified, low-pass filtered at 10 kHz to remove radio frequency interference, and sampled at 40 kHz. For the detection of head-twitch response in mice, LabChart data were processed with a digital band-pass filter at 40 to 200 Hz. The head-twitch response in mice was identified by searching for sinusoidal wavelets that met the following criteria: 1) containing more than two bipolar peaks; 2) amplitude exceeding background noise level; 3) duration less than 120 milliseconds. 1 hour prior to the test, the mice were transferred to the test room for acclimatization. Subsequently, the mice were placed in the beaker for 30 minutes, and baseline head-twitch response values were recorded. Immediately after baseline recording, the mice were injected intraperitoneally with the test compound, and head-twitch response values were recorded for 1 to 2 hours post-dose, depending on the compound used. Statistical values were taken from the first 30 minutes.

[8] = test system: C57BL/6J wild-type mice, acute restraint stress; assay: forced swim test (FST) after acute restraint stress; format: in vivo; conditions: 5 h acute restraint stress, intraperitoneal injection, test after 30 minutes
Experimental: as §2

[9] = depressive episodes associated with bipolar I or II disorder; Calabrese et al. 2021; cited from earlier work
[10] = read-out: Ki, affinity for the 5-HT2A receptor
[11] = Ki, affinity for the 5-HT2A receptor

T1 sequence (P28223 whole entry): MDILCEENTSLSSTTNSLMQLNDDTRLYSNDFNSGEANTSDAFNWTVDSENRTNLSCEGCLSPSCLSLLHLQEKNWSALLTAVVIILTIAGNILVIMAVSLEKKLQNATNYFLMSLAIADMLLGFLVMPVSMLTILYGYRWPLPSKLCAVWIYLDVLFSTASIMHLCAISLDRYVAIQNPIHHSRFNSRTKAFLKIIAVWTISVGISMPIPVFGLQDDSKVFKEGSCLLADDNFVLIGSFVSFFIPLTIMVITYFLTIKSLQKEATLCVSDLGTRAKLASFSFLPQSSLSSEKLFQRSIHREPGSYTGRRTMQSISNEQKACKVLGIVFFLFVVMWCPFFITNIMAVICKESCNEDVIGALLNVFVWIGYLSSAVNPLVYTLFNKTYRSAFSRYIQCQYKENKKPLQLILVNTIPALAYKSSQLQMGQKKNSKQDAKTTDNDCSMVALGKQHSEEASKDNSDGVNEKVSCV
T2 sequence (P14416 whole entry, species assumed): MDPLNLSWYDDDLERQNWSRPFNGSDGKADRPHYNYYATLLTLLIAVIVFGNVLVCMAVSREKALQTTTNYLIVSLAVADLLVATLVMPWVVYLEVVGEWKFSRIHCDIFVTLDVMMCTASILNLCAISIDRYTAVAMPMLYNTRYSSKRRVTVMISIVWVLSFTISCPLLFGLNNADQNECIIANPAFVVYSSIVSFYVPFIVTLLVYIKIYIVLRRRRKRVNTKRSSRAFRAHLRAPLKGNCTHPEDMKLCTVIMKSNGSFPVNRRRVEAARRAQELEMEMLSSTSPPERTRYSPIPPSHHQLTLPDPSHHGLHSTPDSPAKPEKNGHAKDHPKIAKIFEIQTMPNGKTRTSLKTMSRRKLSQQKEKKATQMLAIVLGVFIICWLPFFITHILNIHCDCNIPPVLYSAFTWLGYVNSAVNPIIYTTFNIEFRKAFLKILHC

Question: Which “β-arrestin2 signaling agonistic activity (% in parentheses)” value [1] does the source give for `COc1ccccc1CCCN1CC[C@@H]2[C@H](C1)c1cccc3c1N2CCCS3` [I-27] here?
Answer: (35.7%)

Question: What about the “signaling pathway selectivity at the 5-HT2A receptor (β-arrestin2 versus G protein)” value (shortened to “signaling pathway selectivity”) [1] of the same molecule?
Answer: selectively activate the recruitment of β-arrestin2 mediated by the 5-HT2A receptor, without activating the G protein signaling pathway

Question: Which results are given for `COc1ccccc1CCCN1CCC2C(C1)c1cccc3c1N2CCC3` (single isomer, unassigned) [I-19]?
Answer: β-arrestin2 signaling agonistic activity (% in parentheses) [1]: (59.4%); signaling pathway selectivity at the 5-HT2A receptor (β-arrestin2 versus G protein) [1]: selectively activate the recruitment of β-arrestin2 mediated by the 5-HT2A receptor, without activating the G protein signaling pathway

Question: With `CN1CCN2c3c(cccc31)[C@@H]1CN(CCc3ccccc3O)CC[C@@H]12` [I-9, 2-(2-((6bR,10aS)-3-methyl-2,3,6b,9,10,10a-hexahydro-1H-pyrido[3′,4′:4,5]pyrrolo[1,2,3-de]quinoxalin-8 (7H)-yl)ethyl)phenol] as the molecule, how does the “β-arrestin2 signaling agonistic activity (% in parentheses)” value [1] read?
Answer: (14.4%)

Question: Which results are given for `CN1CCN2c3c(cccc31)[C@@H]1CN(Cc3ccccc3O)CC[C@@H]12` [I-2, 2-(((6bR,10aS)-3-methyl-2,3,6b,9,10,10a-hexahydro-1H-pyrido[3′,4′:4,5]pyrrolo[1,2,3-de]quinoxalin-8 (7H)-yl)methyl)phenol]?
Answer: Gq signaling agonistic activity (% in parentheses) [2]: (65.3%); Ki [3, 10]: 0.525 µM; β-arrestin2 signaling agonistic activity (% in parentheses) [1]: (68.4%)

Question: With `COc1ccccc1CCCN1CCC2C(C1)c1cccc3c1N2CCCN3C` (single isomer, unassigned) [I-14] as the molecule, how does the Ki [3, 11] read?
Answer: 0.028 µM

Question: What does the source list for `COc1ccccc1CCCN1CC[C@H]2[C@@H](C1)c1cccc3c1N2CCN3C` [I-10]?
Answer: Ki [3, 10]: 0.013 µM; antidepressant effect in the TST (immobility time) [4]: significant antidepressant effect; AUC0-inf ([5]; brain): 1346 h · ng · mL^−1 or ng · g^−1; AUC0-t ([5]; brain): 1335 h · ng · mL^−1 or ng · g^−1; AUMC0-inf ([5]; brain): 2054 h · h · ng · mL^−1 or ng · g^−; AUMC0-t ([5]; brain): 1979 h · h · ng · mL^−1 or ng · g^−; Cmax ([5]; brain): 566 ng/g; MRT ([5]; brain): 91.8 min; T1/2 ([5]; brain): 48.1 min; tmax ([5]; brain): 30 min; AUC0-inf ([5]; plasma): 582 ng·h/mL; AUC0-t ([5]; plasma): 576 ng·h/mL; Cmax ([5]; plasma): 225 ng/mL; MRT ([5]; plasma): 127 min; T1/2 ([5]; plasma): 63.6 min; tmax ([5]; plasma): 4.98 min; affinity for the dopamine receptor, in words [6]: weak affinity; β-arrestin2 signaling agonistic activity (% in parentheses) [1]: (12.7%); hallucinogenic effects (head-twitch response) [7]: did not induce hallucinogenic effects; antidepressant effect in the FST (immobility time) [8]: significant antidepressant effect

Question: With `CN1CCN2c3c(cccc31)[C@@H]1CN(CCCC(=O)c3ccc(F)cc3)CC[C@@H]12` [lumateperone] as the molecule, how does the patient response rate [9] read?
Answer: 51.1%

Question: Which Ki [3, 10] does the source give for `COc1cccc(CCN2CC[C@H]3[C@@H](C2)c2cccc4c2N3CCN4C)c1OC` [I-6] here?
Answer: 5.25 µM

Question: What does the source list for `COc1cccc(CCN2CC[C@H]3[C@@H](C2)c2cccc4c2N3CCN4C)c1` [I-4]?
Answer: Gq signaling agonistic activity (% in parentheses) [2]: (13.7%); Ki [3, 10]: 0.088 µM; β-arrestin2 signaling agonistic activity (% in parentheses) [1]: (44.2%)

Question: With `COc1ccccc1CCCN1CCC2C(C1)c1cccc3c1N2CCCN3C` (single isomer, unassigned) [I-15] as the molecule, how does the Ki [3, 11] read?
Answer: 0.007 µM

Question: What about the “β-arrestin2 signaling agonistic activity (% in parentheses)” value [1] of the same molecule?
Answer: (24.3%)

Question: And the “signaling pathway selectivity” value [1]?
Answer: selectively activate the recruitment of β-arrestin2 mediated by the 5-HT2A receptor, without activating the G protein signaling pathway

Question: For `COc1ccc(CCN2CC[C@H]3[C@@H](C2)c2cccc4c2N3CCN4C)cc1` [I-5], which Ki [3, 10] is on record?
Answer: 0.126 µM

Question: What about the “β-arrestin2 signaling agonistic activity (% in parentheses)” value [1] of the same molecule?
Answer: (3.2%)

Question: With `COc1ccccc1CCN1CCC2C(C1)c1cccc3c1N2CCCN3C` (single isomer, unassigned) [I-13] as the molecule, how does the “β-arrestin2 signaling agonistic activity (% in parentheses)” value [1] read?
Answer: (51.4%)

Question: What about the “signaling pathway selectivity” value [1] of the same molecule?
Answer: selectively activate the recruitment of β-arrestin2 mediated by the 5-HT2A receptor, without activating the G protein signaling pathway

Question: For `COc1ccccc1CCN1CC[C@H]2[C@@H](C1)c1cccc3c1N2CCN3C` [I-3], which “Gq signaling agonistic activity (% in parentheses)” value [2] is on record?
Answer: (20.2%)

Question: What about the Ki [3, 10] of the same molecule?
Answer: 0.017 µM

Question: And the “antidepressant effect in the TST (immobility time)” value [4]?
Answer: significant antidepressant effect

Question: What about the “affinity for the dopamine receptor, in words” value [6] of the same molecule?
Answer: weak affinity

Question: What about the “β-arrestin2 signaling agonistic activity (% in parentheses)” value [1] of the same molecule?
Answer: (39.0%)

Question: What about the “hallucinogenic effects (head-twitch response)” value [7] of the same molecule?
Answer: did not induce hallucinogenic effects

Question: And the “antidepressant effect in the FST (immobility time)” value [8]?
Answer: significant antidepressant effect

Question: Which “Gq signaling agonistic activity (% in parentheses)” value [2] does the source give for `CN1CCN2c3c(cccc31)[C@@H]1CN(CCCc3ccccc3O)CC[C@@H]12` [I-11, 2-(3-((6bR,10aS)-3-methyl-2,3,6b,9,10,10a-hexahydro-1H-pyrido[3′,4′:4,5]pyrrolo[1,2,3-de]quinoxalin-8 (7H)-yl)propyl)phenol] here?
Answer: (9.7%)

Question: What about the “β-arrestin2 signaling agonistic activity (% in parentheses)” value [1] of the same molecule?
Answer: (36.8%)

Question: Which Ki [3, 11] does the source give for `COc1ccccc1CCCN1CCC2C(C1)c1cccc3c1N2CCC3` (single isomer, unassigned) [I-18] here?
Answer: 0.057 µM
